Data published in patent US9481870B2, “Nucleic acid encoding a polypeptide having aminotransferase activity, vectors and host cells comprising the nucleic acid” (KANEKA CORPORATION, priority 2010, dated 2016).

Columns and labels:
Type in all cases: biochemical, Pseudomonas sp. MV37
[1] = test system: purified TPM; assay: Specificity to amino group receptor (Example 12); details: (S)-1-phenethylamine 25 mM, pH 7.0, 30° C., 5 minutes
Description: A substrate solution was added to the purified TPM solution, so that the final concentrations of the components would be as follows. After 5 minutes of reaction at 30° C., 6N hydrochloric acid was added in an amount of 50 μL per mL of the reaction solution, so as to stop the reaction. The reaction solution was analyzed by HPLC under the following conditions.
[High Performance Liquid Chromatography (HPLC) Analysis Conditions] • Column: Wakosil-II 5C18 RS (Wako Pure Chemical Industries, Ltd.) • Eluent: 10 mM potassium phosphate buffer (pH5.3): acetonitrile=3:2 • Flow rate: 1 mL/minute • Detection: 241 nm

[2] = test system: purified TPM; assay: Specificity 2 to amino group donor: typical substrates of ω-amino acid transaminase (Example 11); details: pyruvic acid 14 mM; for activity of TPM for the amino group donor: amino compound 14 mM, pH 7.5; for Relative activity (%): amino group donor 14 mM, pH 7.5, 30° C., 1 hour, (S)-1-phenethylamine = 100
Description: (§1) Specifically, first, a purified polypeptide is added to a substrate solution with the following composition so that the volume thereof is 400 μl. After 1 hour of reaction at 30° C., 20 μl of 3N hydrochloric acid is added to stop the reaction. Next, 80 μl of a 0.2 M aqueous sodium carbonate solution and 200 μl of an acetone solution of 3.3 mg/mL Dabsyl chloride are separately added to 20 μl of the thus obtained reaction solution, followed by 10 minutes of reaction at 70° C. Acetic acid (20 μl) is added to the reaction solution and then the solution is stirred. The reaction solution is analyzed by HPLC under the following conditions, and then the quantity of dabsylated alanine is determined. In addition, the concentration of a purified polypeptide to be used herein is adjusted so that the amount of alanine generated is 2.8 mM or less as determined by the determination method (hereinafter, referred to as activity assay B).
The purified TPM obtained in Example 7 was examined to determine its reactivity to typical substrates of ω-amino acid transaminase. First, 20 μL of a purified TPM solution was added to 380 μL of a substrate solution with the composition given below. After 1 hour of reaction at 30° C., 20 μL of 3 N hydrochloric acid was added to stop the reaction. Next, 80 μL of a 0.2 M aqueous sodium carbonate solution and 200 μL of an acetone solution of 3.3 mg/mL Dabsyl chloride were separately added to 20 μL of the thus obtained reaction solution, followed by 10 minutes of reaction at 70° C. 20 μL of acetic acid was added to the solution and then it was stirred. The reaction solution was analyzed by HPLC under the following conditions, and thus the quantity of dabsylated alanine was determined.
(§2) [High Performance Liquid Chromatography (HPLC) Analysis Conditions] • Column: Deverosil ODS-HG-3 (NOMURA CHEMICAL) • Eluent: acetonitrile/0.045 M acetate buffer (pH4.1)=35/65 (volume ratio) • Flow rate: 0.9 mL/minute • Detection: 254 nm

[3] = test system: purified TPM; assay: Specificity to amino group donor (dabsylated alanine quantification, Example 10); details: pyruvic acid 14 mM, pH 7.5, 30° C., 1 hour; for Relative activity (%): amino group donor 14 mM (28 mM racemic body), n-butylamine = 100%
Description: as §1
The purified TPM obtained in Example 7 was examined to determine its specificity to amino group donors. First, 20 μL of a purified TPM solution was added to 380 μL of a substrate solution with the composition given below. After 1 hour of reaction at 30° C., 20 μL, of 3 N hydrochloric acid was added to stop the reaction. Next, 80 μl of an aqueous 0.2 M sodium carbonate solution and 200 μl of an acetone solution of 3.3 mg/mL Dabsyl chloride were added to 20 μL, of the thus obtained reaction solution, followed by 10 minutes of reaction at 70° C. 20 μL of acetic acid was added to the reaction solution. The reaction solution was stirred and then analyzed by HPLC under the following conditions, and thus the quantity of dabsylated alanine was determined.
as §2

## O=C1CCN(Cc2ccccc2)C1 [1-benzyl-3-pyrrolidinone]
[1]; substrate concentration 2.5 mM
  Relative activity (%): 4.7%

## CCCC=O [Butylaldehyde]
[1]; substrate concentration 2.5 mM
  Relative activity (%): 7%

## CC(=O)c1ccccn1 [2-acetylpyridine]
[1]; substrate concentration 2.5 mM
  Relative activity (%): 16%

## CC(=O)c1cnccn1 [Acetylpyrazine]
[1]; substrate concentration 2.5 mM
  Relative activity (%): 23%

## O=C1CCc2ccccc2C1 [2-tetralone]
[1]; substrate concentration 2.5 mM
  Relative activity (%): 17%

## NCCC(=O)O [β-alanine]
[2]
  activity of TPM for the amino group donor: does not exhibit activity
  Relative activity (%): 0%

## CCC(C)N (racemic) [±2-butylamine]
[3]
  Relative activity (%): 67%
  activity of TPM for the amino group donor: exhibits its activity

## O=C(Cc1ccccc1)c1ccccc1 [Benzyl phenyl ketone]
[1]; substrate concentration 2.5 mM
  Relative activity (%): 3.8%

## CCOC(=O)CC(=O)c1ccccc1 [Benzoylacetic acid ethyl]
[1]; substrate concentration 2.5 mM
  Relative activity (%): 13%

## NCc1ccccc1 [benzylamine]
[3]
  Relative activity (%): 95%
  activity of TPM for the amino group donor: exhibits its activity

## O=CC(=O)O [Glyoxalic acid]
[1]; substrate concentration 25 mM
  Relative activity (%): 40%

## NCCCCN [Putrescine]
[2]
  activity of TPM for the amino group donor: does not exhibit activity
  Relative activity (%): 0%

## NCCS(=O)(=O)O [Taurine]
[2]
  activity of TPM for the amino group donor: does not exhibit activity
  Relative activity (%): 0%

## CC(=O)C(=O)O [Pyruvic acid]
[1]; substrate concentration 25 mM
  Relative activity (%): 100%

## O=C(O)CCC(=O)C(=O)O [2-ketoglutaric acid]
[1]; substrate concentration 25 mM
  Relative activity (%): 0%

## NCCCC[C@H](N)C(=O)O [L-lysine]
[2]
  activity of TPM for the amino group donor: does not exhibit activity
  Relative activity (%): 0%

## NCCCC(=O)O [4-aminobutyric acid]
[2]
  activity of TPM for the amino group donor: does not exhibit activity
  Relative activity (%): 0%

## CCCCCC(C)=O [2-heptanone]
[1]; substrate concentration 2.5 mM
  Relative activity (%): 4.6%

## CC(=O)CCc1ccccc1 [Benzylacetone]
[1]; substrate concentration 2.5 mM
  Relative activity (%): 12%

## CCCCN [n-butylamine]
[3]
  Relative activity (%): 100%
  activity of TPM for the amino group donor: exhibits its activity

## C[C@H](N)c1ccccc1 [(S)-α-phenethylamine]
[2]
  Relative activity (%): 100%
